Measurements published in ChEMBL document CHEMBL1201862, “PubChem BioAssay data set” (2004).
Active and inactive are the calls of the source.

Legend:
[1] = molecular target: FAD-linked sulfhydryl oxidase ALR (Homo sapiens, UniProt P55789); test: ALR-catalysed DTT oxidation blockers – biochemical, H2O2 detection, luminescence, cherry-pick, dose response (AID 493248)
Large T antigen = Large T antigen (Simian virus 40, UniProt P03070); type: functional, Betapolyomavirus macacae;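 further: Confirmatory-stage PubChem screen for compounds that inhibit SV40 T antigen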
Sequence of Large T antigen (P03070 whole entry): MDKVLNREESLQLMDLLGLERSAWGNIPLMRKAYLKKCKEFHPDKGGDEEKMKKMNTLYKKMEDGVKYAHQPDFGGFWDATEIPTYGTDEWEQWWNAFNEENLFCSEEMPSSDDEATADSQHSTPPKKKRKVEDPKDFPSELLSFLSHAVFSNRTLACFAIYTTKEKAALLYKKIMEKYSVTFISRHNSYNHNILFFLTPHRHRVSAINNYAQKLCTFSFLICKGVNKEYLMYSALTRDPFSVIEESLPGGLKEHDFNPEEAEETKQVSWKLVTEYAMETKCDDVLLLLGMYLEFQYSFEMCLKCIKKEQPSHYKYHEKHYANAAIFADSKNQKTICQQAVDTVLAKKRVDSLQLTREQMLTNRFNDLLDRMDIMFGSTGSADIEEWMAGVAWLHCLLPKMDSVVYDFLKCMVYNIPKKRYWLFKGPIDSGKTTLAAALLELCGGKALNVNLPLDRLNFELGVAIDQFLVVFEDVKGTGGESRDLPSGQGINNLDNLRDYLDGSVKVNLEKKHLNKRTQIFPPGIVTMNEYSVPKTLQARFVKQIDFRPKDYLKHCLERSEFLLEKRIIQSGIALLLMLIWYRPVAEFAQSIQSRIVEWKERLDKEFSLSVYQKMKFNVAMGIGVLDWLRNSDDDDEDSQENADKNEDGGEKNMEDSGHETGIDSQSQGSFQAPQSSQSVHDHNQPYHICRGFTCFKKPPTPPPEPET

[2] = molecular target: T1, Rac GTPase-activating protein 1 (Homo sapiens, UniProt Q9H0H5); test: blockers of MgcRacGAP-driven Rac1 GTP hydrolysis – biochemical, ADP Hunter fluorescence, primary and confirmatory, confirmation (AID 624330); type: functional
T1 sequence (Q9H0H5 whole entry): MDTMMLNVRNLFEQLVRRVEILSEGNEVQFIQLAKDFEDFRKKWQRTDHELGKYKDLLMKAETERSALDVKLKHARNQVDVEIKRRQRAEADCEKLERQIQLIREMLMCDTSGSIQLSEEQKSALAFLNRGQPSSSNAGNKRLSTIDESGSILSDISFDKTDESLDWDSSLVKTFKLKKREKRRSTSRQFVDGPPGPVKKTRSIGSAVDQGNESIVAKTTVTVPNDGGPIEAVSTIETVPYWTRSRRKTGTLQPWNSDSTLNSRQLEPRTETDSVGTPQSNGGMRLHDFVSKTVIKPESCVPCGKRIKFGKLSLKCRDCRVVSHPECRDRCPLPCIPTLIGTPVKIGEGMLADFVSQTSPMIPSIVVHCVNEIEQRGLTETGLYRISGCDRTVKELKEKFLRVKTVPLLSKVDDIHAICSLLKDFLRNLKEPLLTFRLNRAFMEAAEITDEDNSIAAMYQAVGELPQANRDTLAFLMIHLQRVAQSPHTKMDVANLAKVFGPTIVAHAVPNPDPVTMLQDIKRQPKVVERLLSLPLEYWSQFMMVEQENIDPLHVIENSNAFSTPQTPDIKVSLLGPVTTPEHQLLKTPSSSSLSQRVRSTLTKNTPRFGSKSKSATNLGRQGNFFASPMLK

[3] = molecular target: T2, Heat shock factor protein 1 (Mus musculus, UniProt P38532); test: decrease of HSF1-responsive luciferase luminescence – cell-based, NIH3T3, dose retest, confirmation (AID 2382); type: functional;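 further: NIH3T3 fibroblasts with HSF1-driven luciferase reporter stressed by proteasome inhibitor MG132; luminescence from HSF1-driven luciferase expression after 8 hours of MG132 stress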
T2 sequence (P38532 whole entry): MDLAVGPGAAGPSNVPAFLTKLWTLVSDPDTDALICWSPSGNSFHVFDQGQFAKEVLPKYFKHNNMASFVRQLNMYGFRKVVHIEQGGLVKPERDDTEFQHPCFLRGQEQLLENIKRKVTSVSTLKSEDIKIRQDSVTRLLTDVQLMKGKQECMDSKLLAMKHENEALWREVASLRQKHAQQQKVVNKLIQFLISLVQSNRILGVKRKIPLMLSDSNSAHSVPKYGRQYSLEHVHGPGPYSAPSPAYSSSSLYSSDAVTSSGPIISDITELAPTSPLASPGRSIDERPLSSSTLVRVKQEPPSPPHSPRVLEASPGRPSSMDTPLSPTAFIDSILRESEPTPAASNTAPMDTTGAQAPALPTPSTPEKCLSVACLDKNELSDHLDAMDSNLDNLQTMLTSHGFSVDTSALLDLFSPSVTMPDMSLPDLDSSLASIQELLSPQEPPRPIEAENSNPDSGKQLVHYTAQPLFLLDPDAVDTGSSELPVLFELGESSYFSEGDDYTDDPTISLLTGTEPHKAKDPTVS

[4] = molecular target: T2, Heat shock factor protein 1; test: enhancement of HSF1-driven luciferase signal – cell-based, NIH3T3, luminescence, dose retest, confirmation (AID 435004); type: functional;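 further: stress induced by proteasome inhibitor MG132 added 30 min after compound; luciferase reporter driven by HSF1 response element in NIH3T3 cells; actives raise luminescence as potentiators of the MG132 stress response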
[5] = Trypanosoma cruzi growth suppression in host cells – NIH3T3 host cells, beta-gal luminescence, confirmation (AID 2044); type: functional, cell-based;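 further: intracellular parasites grown in NIH/3T3 mouse fibroblasts as host cells; luminescent beta-galactosidase reporter signal from transgenic T. cruzi replicating inside host cells; inhibitors lower the luminescence signal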
[6] = NIH3T3 cell viability loss – ATP luminescence, mouse fibroblasts, counter-screen, dose response (AID 2010); type: functional, cell-based;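 further: cells exposed to compound for about 90 hours before reading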
Cytochrome P450 2C19 = Cytochrome P450 2C19 (Homo sapiens, UniProt P33261); test: Cytochrome panel assay with activity outcomes. Panel member name: p450-cyp2c19 Compounds with AC50 equal or less than 10 uM are considered active; type: functional; settings: read-out: AC50
Sequence of Cytochrome P450 2C19 (P33261 whole entry): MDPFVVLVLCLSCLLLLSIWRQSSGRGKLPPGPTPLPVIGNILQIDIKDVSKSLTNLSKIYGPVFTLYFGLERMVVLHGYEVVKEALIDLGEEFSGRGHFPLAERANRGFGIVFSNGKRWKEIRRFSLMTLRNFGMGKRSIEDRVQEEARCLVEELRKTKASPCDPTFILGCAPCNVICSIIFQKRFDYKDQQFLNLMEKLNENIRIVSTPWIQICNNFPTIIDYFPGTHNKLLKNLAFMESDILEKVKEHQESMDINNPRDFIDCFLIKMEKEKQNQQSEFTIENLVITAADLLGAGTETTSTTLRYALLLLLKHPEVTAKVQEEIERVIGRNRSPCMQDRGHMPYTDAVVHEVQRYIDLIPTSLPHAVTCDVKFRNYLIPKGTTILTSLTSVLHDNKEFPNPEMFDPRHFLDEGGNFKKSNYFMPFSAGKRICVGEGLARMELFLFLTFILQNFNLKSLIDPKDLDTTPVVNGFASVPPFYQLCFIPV

[7] = viability of uninfected HEp-2 cells – cell-based, HTS, cytotoxicity control for RSV inhibitor project, dose response (AID 2410); type: functional; settings: human respiratory syncytial virus
[8] = Luminescence Cell-Based Dose Response HTS to Identify Activators of Luciferase Translation or Activity in H4 […] Cells. [Related pubchem assays: 1829 (Project Summary), 1814 (Primary HTS)]; type: functional
H4 = test: Luminescence Cell-Based Dose Response HTS to Identify Activators of 5'UTR Stem-Loop Driven Prion Protein mRNA Translation in H4 Neuroglioblastoma Cells. [Related pubchem assays: 1829 (Project Summary), 1814 (Primary HTS)]; type: functional; settings: Homo sapiens
[9] = Luminescence Cell-Based Dose Retest to Confirm Inhibitors of Cancer Stem Cells. [Related pubchem assays (depositor defined):AID2717, AID2721]; type: functional; settings: Homo sapiens
[10] = luciferase reporter signal suppression in cells – H4 neuroglioma cells, luminescence, dose response (AID 1990); type: functional, cell-based
[11] = alpha-synuclein stem-loop luciferase translation blockers – H4 neuroglioma cells, luminescence, confirmation (AID 1988); type: functional, cell-based
[12] = Luminescence Cell-Based Dose Response HTS to Identify Inhibitors of 5'UTR Stem-Loop Driven Prion Protein mRNA Translation in H4 Neuroglioblastoma Cells. [Related pubchem assays: 1827 (Project Summary), 1813 (Primary HTS)]; type: functional

Sequence of FAD-linked sulfhydryl oxidase ALR (P55789 whole entry): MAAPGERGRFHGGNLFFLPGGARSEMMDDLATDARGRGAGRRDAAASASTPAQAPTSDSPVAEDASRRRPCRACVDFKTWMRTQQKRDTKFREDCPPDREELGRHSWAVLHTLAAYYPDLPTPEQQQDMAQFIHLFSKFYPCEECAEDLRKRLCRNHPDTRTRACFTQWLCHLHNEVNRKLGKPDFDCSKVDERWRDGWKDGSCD

O=C(C1CCCN(S(=O)(=O)c2c[nH]cn2)C1)N1CCN(c2ccc(Cl)cc2)CC1 (stereo not given)
AC50 [1]: > 100 µM (inactive)

COc1ccc(/C=N/Nc2nc(N3CCCC3)nc(N3CCCC3)n2)cc1O
IC50 (Large T antigen): 10.2 µM (active) | IC50 [2]: 62.2 µM (active)

NNC(=O)c1ccc(O)cc1
AC50 [1]: 4.28 µM (active)

Nc1[nH]cnc2nc(SCCOc3ccc(Cl)cc3)nc1-2
EC50 [3]: > 195 µM (not active)

CN(C)c1ccc(N2C(=O)CC(Nc3ccc(N4CCOCC4)cc3)C2=O)cc1 (stereo not given)
IC50 (Large T antigen): 12.9 µM (active)

CC(=O)Nc1ccc(C2=NN(Cc3nnc(-c4ccccc4)o3)C(=O)SC2)cc1
EC50 [4]: > 260 µM (inactive)

N#CCCn1cc(C(=O)Nc2ccc([N+](=O)[O-])cc2)c(-c2ccccc2)n1
EC50 [3]: > 195 µM (not active)

COC(=O)c1cnc(N2CCCN(S(=O)(=O)c3ccc(C(F)(F)F)cc3)CC2)nc1C(F)(F)F
EC50 [5]: 3.03 µM (active) | EC50 [4]: > 260 µM (inactive) | EC50 [6]: > 60 µM (not active)

COc1ccc(/C=C2\C(=O)ON=C2c2ccccc2)cc1
AC50 [1]: 66.4 µM (active)

COc1ccc(/C=N/NC(=O)c2cc[n+]([O-])cc2)cc1O
IC50 [2]: 38.2 µM (active)

COc1cccc(CNc2nc3ccccc3n2C(C)C)c1O
EC50 [4]: > 260 µM (inactive)

O=C(Cc1coc2cc(O)ccc12)N1CCN(S(=O)(=O)c2ccc(Br)cc2)CC1
IC50 [2]: 21.6 µM (active)

CCN(Cc1ccncc1)Cc1ccc(OC)c(OC)c1
IC50 [2]: 190 µM (active)

COCC/N=C1/Sc2nc3c(C)cccc3cc2CN1Cc1ccco1
AC50 (Cytochrome P450 2C19): 2.51 µM (inconclusive) | IC50 (Large T antigen): 67.5 µM (active) | CC50 [7]: 39.2 µM (active)

O=C(CN1CCN(c2ccc(O)cc2)CC1)Nc1ccc(S(=O)(=O)N2CCCC2)cc1
AC50 [1]: 0.699 µM (active)

Cc1nc2sccn2c(=O)c1S(=O)(=O)Nc1ccc(N2CCOCC2)c(Cl)c1
EC50 [3]: 92.2 µM (active)

Cc1nnc(SCc2ccccc2)n1CC1CCCO1 (stereo not given)
IC50 (Large T antigen): > 100 µM (active)

CN(C)c1ccc(CNC(=O)C2CCN(S(=O)(=O)c3ccc4c(c3)CCCC(=O)N4)CC2)cc1
AC50 [1]: 5.99 µM (active)

Cc1cccc(Oc2ccc3c(c2)cc(C(=O)O)n3C)c1
AC50 [1]: 0.211 µM (active)

CC(C)(C)NC(=O)COC(=O)c1ccccc1Nc1ccc(SC(F)F)cc1
EC50 [8]: 23.9 µM (active) | EC50 (H4): 12.8 µM (active)

COc1cccc2c(N/N=C/c3ccc(O)c(O)c3)cc(C)nc12
IC50 (Large T antigen): 23.8 µM (active)

COc1ccc(CCNC(=O)c2cccc([N+](=O)[O-])c2)cc1OC
EC50 [3]: 2.26 µM (active)

C=CCn1c(CNc2ccc(C)cc2)nnc1SCC(=O)N/N=C/c1ccc(O)cc1O
AC50 [9]: 4.31 µM (active) | IC50 [2]: 85.1 µM (active)

CC(C(=O)NC(=O)NC1CCCCC1)N1CCN(c2ccc(O)cc2)CC1 (stereo not given)
IC50 [2]: 55.5 µM (active)

Cc1sc2ncnc(N3CCC(C(=O)N(C)CC(=O)Nc4ccc(Cl)c(C(F)(F)F)c4)CC3)c2c1C
EC50 [5]: 2.73 µM (active) | EC50 [10]: 7.86 µM (active) | EC50 [11]: 10.3 µM (active) | AC50 [9]: 3.41 µM (active) | EC50 [12]: 13 µM (active) | EC50 [6]: > 60 µM (not active)

Cc1ccc(CCNC(=O)C2CCN(S(=O)(=O)c3ccc4c(c3)NC(=O)CO4)CC2)cc1
EC50 [4]: > 260 µM (inactive)

COc1ccc(C2SCC(=O)N2c2ccc(F)cc2)cc1 (stereo not given)
AC50 [1]: 0.049 µM (active)

CCN(CC)c1ccc(/C=N\NC(N)=O)cc1
AC50 [1]: 0.825 µM (active) | IC50 [2]: 50.7 µM (active)

Cc1ccn2c(NC3CCCCC3)c(C(C)C)nc2c1
AC50 [1]: 2.82 µM (active)

CN(C)c1ccc(C(C[N+](=O)[O-])c2c(N)n(C)c(=O)n(C)c2=O)c(F)c1C#N (stereo not given)
EC50 [4]: > 260 µM (inactive)

CCOc1cc(C(c2c(O)nc(SC)nc2O)c2c(O)nc(SC)nc2O)ccc1O
IC50 (Large T antigen): > 100 µM (active)

COCCCNC(=S)N/N=C/c1ccc(O)cc1O
IC50 (Large T antigen): 9.14 µM (active)

CC1Oc2ccccc2N(CC(=O)NCc2ccccc2)C1=O (stereo not given)
EC50 [3]: > 195 µM (not active)

Cc1oc2c(C)c3oc(=O)c(CCC(=O)N4C[C@H]5C[C@@H](C4)c4cccc(=O)n4C5)c(C)c3cc2c1C
EC50 [10]: 65.1 µM (active) | EC50 [11]: 13.5 µM (active) | EC50 [12]: > 120 µM (not active)

Cc1ccc(-n2nc3c(=O)n(CCCC(=O)NCc4cccc(Cl)c4)nc(C)c3c2C)cc1
EC50 [10]: 14.1 µM (active) | EC50 [11]: 61.6 µM (active) | EC50 [12]: 74.3 µM (active) | CC50 [7]: 28.4 µM (active)

Cc1ccc(OCCC(=O)N2CCN(c3ccc(O)cc3)CC2)cc1
IC50 (Large T antigen): 11.8 µM (active)

CCOC(=O)c1nnsc1Nc1ccc(C)c(C)c1
EC50 [4]: 104 µM (active)

[O-][n+]1onc2c3c4c(n(O)c3ccc21)CCCC4
AC50 [1]: 0.497 µM (active)

O=C(CN(CC1CCCO1)S(=O)(=O)c1ccc(S(=O)(=O)NC2CC2)cc1)Nc1ccccc1 (stereo not given)
EC50 [4]: > 260 µM (inactive)

O=S(=O)(Nc1ccncc1)c1ccc(Cl)cc1
EC50 [3]: > 195 µM (not active)

CCOC(=O)c1c(CN(C)C)n(C)c2ccc(OC(C)=O)cc12
EC50 [3]: > 195 µM (not active)

CN(C)c1cccc(C(=O)NC2CCCCCC2)c1
AC50 [1]: 8.08 µM (active)

Cc1ccn2c(NC(C)(C)C)c(-c3cccs3)nc2c1
AC50 [1]: 1.58 µM (active)

COCCCNc1nc(S)nc2cc(OC)c(OC)cc12
IC50 [2]: 69.7 µM (active)

Cc1cccc(NC(=O)c2sc(-c3ccccc3)nc2-c2ccc([N+](=O)[O-])cc2)c1
EC50 [5]: 1.53 µM (active) | EC50 [6]: > 60 µM (not active) | EC50 [3]: > 195 µM (not active)

CCc1ccc(/C=N/NC(=O)c2cc(C3CC3)nc3ccc(Br)cc23)s1
EC50 [10]: > 120 µM (not active) | EC50 [11]: 6.9 µM (active) | EC50 [12]: 9.75 µM (active)

O=Nc1ccc(NOC(=O)c2ccccc2Br)cc1
IC50 (Large T antigen): 30.1 µM (active)

Cc1ccc(C)c(Cn2nnc3c(=O)[nH]c(C4CCN(C(=O)c5cccs5)CC4)nc32)c1
EC50 [4]: > 260 µM (inactive)
